From ChEMBL document CHEMBL4402536, “Recent progress on anti-Toxoplasma drugs discovery: Design, synthesis and screening” (Eur J Med Chem, 2019) come the findings set out here.

The subject of series [1] is Toxoplasma gondii. As to the kind of experiment: Antiparasitic activity against Toxoplasma gondii. The series is classed as functional, organism-based.
Series [2] is described as follows: Inhibition of Toxoplasma gondii CDPK1.
The test system of series [3] is Toxoplasma gondii. The experiment in a line: Antiparasitic activity against Toxoplasma gondii infected in human HFF cells after 4 hrs by CellTiter 96Aqueous One cell viability assay. The series is classed as functional, organism-based.
The subject of series [4] is Toxoplasma gondii. As to the kind of experiment: Antiparasitic activity against Toxoplasma gondii infected in CF-1 mouse at 0.04 to 50 mg/kg, po after 48 hrs. The series is classed as functional.
Series [5] in a line: Therapeutic index, ratio of TD50 in CF-1 mouse to IC50 of Toxoplasma gondii infected in human HFF cells. The series is classed as toxicity, cell-based. The note with it: read-out: TI.
Series [6] can be described thus: Half life of the compound. The series is classed as physicochemical.
For series [7], the system named is Toxoplasma gondii. The experiment in a line: Antiparasitic activity against Toxoplasma gondii infected in human HuH7 cells. The series is classed as functional, organism-based.
The next series has as its system HFF. As to the kind of experiment: Cytotoxicity against human HFF cells assessed as reduction in cell viability. The series is classed as cell-based.
A short description of series [8]: Selectivity index, ratio of EC50 for human HFF cells to EC50 Toxoplasma gondii RH. The series is classed as functional.
The test system of series [9] is Toxoplasma gondii. As to the kind of experiment: Antiparasitic activity against Toxoplasma gondii RH infected in human HFF cells in presence of […] by radio-labelled assay. The series is classed as functional, organism-based.
Series [10] concerns Toxoplasma gondii. The experiment in a line: Antiparasitic activity against Toxoplasma gondii infected in human HFF cells after 4 hrs. The series is classed as functional, organism-based.
Series [11] has as its system Toxoplasma gondii. The experiment in a line: Antiparasitic activity against Toxoplasma gondii infected in human HFF cells after 7 days by crystal violet assay. To be noted: 168 h. The series is classed as functional, organism-based.
For the next series, the system named is Huh-7. The experiment in a line: Cytotoxicity against human HuH7 cells assessed as reduction in cell viability. The series is classed as functional, cell-based.

Molecules are shown by their SMILES. Values after ≈ are worked out from the molar mass of the structure shown.

Turning to `Cc1cccc(Cc2nn(C(C)(C)C)c3ncnc(N)c23)c1`, the concentration giving a half-maximal response (EC50) (usually the concentration giving half of the maximal effect) in the series with Toxoplasma gondii [1] was found to be 110 nM. Besides, in series [2], 3.99 nM corresponded to half-maximal inhibition (IC50).

As for `Cc1[nH]c2ccccc2c(=O)c1-c1ccc(Oc2ccc(OC(F)(F)F)cc2)cc1`, inhibition in the series with Toxoplasma gondii [3] was half-maximal at 1 nM (IC50). Moreover, the ED50 (in general, the dose that gives a 50% effect, or the effect in half of the subjects) in the series on Toxoplasma gondii [4] stood at 0.14 mg/kg. The selectivity ratio in series [5] turned out to be 93500. As for `CCN(CC)c1ccc(C(=O)NC(=O)c2ccccc2O)cc1`, the half-inhibitory concentration (IC50) (in general, the concentration that gives 50% inhibition) with Toxoplasma gondii [1] came out at 8 nM. In [6], the half-life (as a rule, how long it takes for the measured level to halve) is 33 min. With `O=C1CN(CCCCCN2CCCCC2)c2ccc([N+](=O)[O-])cc2N1`, in the series on Toxoplasma gondii [7], the MIC50 (commonly an inhibitory concentration at the 50% level, which refers to growth in some studies and to a panel of isolates in others) is 3.3 µM (≈ 1.14 µg/mL).

Take `COc1cc2[nH]c(C)c(-c3ccc(Oc4ccc(OC(F)(F)F)cc4)cc3)c(=O)c2cc1F`: in the series on Toxoplasma gondii [3], inhibition was half-maximal at 0.007 nM (IC50). In addition, in the series on Toxoplasma gondii [4], the ED50 was determined as 0.08 mg/kg. For the same compound, the selectivity ratio in series [5] was more than 7.1e+06.

With `O=c1[nH]ccc2nc(NC3CCCNC3)nc(Nc3ccc(S(=O)(=O)N4CCOCC4)cc3)c12` (centres undefined), the IC50 with Toxoplasma gondii [1] was less than 500 nM.

In the series with Toxoplasma gondii [3], `Cc1[nH]c2cc(F)cc(F)c2c(=O)c1-c1ccc(Oc2ccc(OC(F)(F)F)cc2)cc1` came in with a concentration for a half-maximal effect (EC50) of 5 nM. Turning to `CC[C@]1(C)NC(=O)[C@H](CCCCCC(=O)[C@@H](C)OC(C)=O)NC(=O)[C@H]2C[C@H](C)CN2C(=O)[C@H](Cc2ccccc2)NC1=O`, the values for the EC50 in the series with HFF and with Toxoplasma gondii [9] were 632 nM and 10.2 nM, respectively. Moreover, in series [8], the “Selectivity Index” value amounted to 62. As to `O=c1c2ccccc2ncn1C[C@H](O)C[C@H]1NCCC[C@@H]1O`, the EC50 in the series on Toxoplasma gondii [1] is 1900 nM. In the case of `O=C(C[C@H]1NCCC[C@@H]1O)Cn1cnc2c(c1=O)CCCC2`, in the series on Toxoplasma gondii [1], the response was half-maximal at 880 nM (EC50). With `C=C(C)[C@H](CC=C(C)C)C[C@]12C[C@H](CC=C(C)C)C(C)(C)[C@](CC=C(C)C)(C(=O)C(C(=O)c3ccc(O)c(O)c3)=C1O)C2=O`, the concentration for a half-maximal effect (EC50) in the series with Toxoplasma gondii [9] is 1800 nM. In turn, `CC(=O)[C@@H]1CC[C@]2(C)CC[C@]3(C)[C@H](CC[C@@H]4[C@@]5(C)CCC(=O)C(C)(C)[C@@H]5CC[C@]43C)[C@@H]12` came in with an IC50 in the series with Toxoplasma gondii [1] of 24400 nM. `CC(C)(C)C1=CC(=NNc2ccc([N+](=O)[O-])cc2[N+](=O)[O-])C=C(C(C)(C)C)C1=O`: half-maximal inhibition in the series with Toxoplasma gondii [10] (IC50) was put at 130 nM.

With `O=C1CCCN[C@@H]1CCCn1cnc2ccccc2c1=O`, the EC50 with Toxoplasma gondii [1] came to 8900 nM. Compound `CC(C)n1c(/C=N/Nc2nc3ccccc3[nH]2)nc2ccccc21` displayed a 50% inhibitory concentration (IC50) in the series on Toxoplasma gondii [1] of 1360 nM.

For the compound `CC[C@]1(C)NC(=O)[C@H](CCCCCC(=O)[C@@H](C)OC(=O)Oc2ccccc2)NC(=O)[C@H]2C[C@H](C)CN2C(=O)[C@H](Cc2ccccc2)NC1=O`, the EC50 with HFF was 59.2 nM; in the series on Toxoplasma gondii [9], 11.3 nM. Further, the “Selectivity Index” value in [8] was 47.7.

Turning to `C[C@H]1[C@H](C)CC[C@]2(C(=O)OCCn3cnnc3-c3ccccc3)CC[C@]3(C)C(=CC[C@@H]4[C@@]5(C)CC[C@H](O)C(C)(C)[C@@H]5CC[C@]43C)[C@H]12`, the IC50 in the series with Toxoplasma gondii [1] came to 128 µg/mL. In the series with Toxoplasma gondii [11], `CC(C)c1n[nH]c2c(=O)[nH]c(Cc3ccccc3)nc12` had an IC50 of 2000 nM. In the series with Toxoplasma gondii [10], `CC(C)(C)C1=CC(=NNC(=O)c2ccc([N+](=O)[O-])cc2)C=C(C(C)(C)C)C1=O` returned an IC50 of 200 nM.

As to `OCCCCCCC1COOC2(CCCCCCCCCCC2)OO1` (centres undefined), the half-inhibitory concentration (IC50) with Huh-7 was determined as 310 µg/mL (≈ 865 µM). Moreover, the LC50 (in general, the concentration lethal to half of the exposed cells or organisms) with Toxoplasma gondii [7] (Huh-7) came out at 1.11 µg/mL (≈ 3.1 µM). `O=C1C=C/C(=N\Oc2ccc([N+](=O)[O-])cc2[N+](=O)[O-])c2cccnc21` showed an IC50 in the series with Toxoplasma gondii [1] of 1340 nM. For the compound `CC(C)(C)C1=CC(=NNC(=O)c2ccncc2)C=C(C(C)(C)C)C1=O`, half-maximal inhibition in the series with Toxoplasma gondii [10] (IC50) required 2300 nM.

For `CCc1ccc(C(=O)NC(=O)c2ccccc2O)cc1`, the 50% inhibitory concentration (IC50) with Toxoplasma gondii [1] fell in the range of 16 to 32 nM. In addition, the half-life in series [6] is less than 10 min.

`CCOc1ccc(/C=C/c2nc(=O)c3ccccc3o2)cc1`: the IC50 in the series with Toxoplasma gondii [10] came to 270 nM. In turn, `O=C1C2=C(C(=O)c3ccccc31)[C@H]1Oc3ccc(Cl)cc3[C@H]1CO2` displayed an IC50 in the series with Toxoplasma gondii [1] of less than 1000 nM.

In turn, `CC(C)(C)c1cc(C2C(C#N)=C(N)OC3=C2C(=O)CCC3)cc(C(C)(C)C)c1O` (centres undefined) yielded an IC50 in the series on Toxoplasma gondii [10] of 1300 nM. `COc1ccc(OC)c(NCc2ccc3nc(N)nc(N)c3c2Cl)c1`: in the series with Toxoplasma gondii [1], the IC50 was determined as 20 nM. On the same count and under the same terms, for `CC(=O)O[C@H]1CC[C@]2(C)[C@H]3CC=C4[C@@H]5CC(C)(C)CC[C@]5(C(=O)O)CC[C@@]4(C)[C@]3(C)CC[C@H]2C1(C)C` [ACETYL OLEANOLIC ACID] the value was 6800 nM; for `CC(C)(C)[C@H]1CC[C@H](CC2=C(O)C(=O)c3ccccc3C2=O)CC1` [BUPARVAQUONE], 100 nM. `C[C@H]1Cc2c([nH]c3cc(Cl)c(F)cc23)[C@@]2(N1)C(=O)Nc1ccc(Cl)cc12` [CIPARGAMIN] came in with a 50% inhibitory concentration (IC50) in the series on Toxoplasma gondii [7] (Huh-7) of 1000 nM. Regarding `O=c1[nH]c2cc(Cl)ccc2n1C1CCN(CCCC(c2ccc(F)cc2)c2ccc(F)cc2)CC1` [CLOPIMOZIDE], the IC50 in the series on Toxoplasma gondii [1] turned out to be 1800 nM.

With `O=C(CC1NCCCC1O)Cn1cnc2cc(Br)c(Cl)cc2c1=O` (centres undefined) [HALOFUGINONE], in the series with Toxoplasma gondii [1], the response was half-maximal at 1.4 nM (EC50).

The compound `OCCOCCN1CCN(C(c2ccccc2)c2ccc(Cl)cc2)CC1` (centres undefined) [HYDROXYZINE] yielded an IC50 in the series on Toxoplasma gondii [1] of 1000 nM. In the series with Toxoplasma gondii [11], `C/C1=C\[C@H](C)C[C@H](C)OC(=O)C[C@H](c2ccc(O)cc2)NC(=O)[C@@H](Cc2c(Br)[nH]c3ccccc23)N(C)C(=O)[C@H](C)NC(=O)[C@@H](C)C1` [JASPAMIDE] came in with an EC50 of 30 to 300 nM.

As for `C=CC(C)(C)c1cc(/C=C/C(=O)c2ccc(O)cc2)c(OC)cc1O` [LICOAGROCHACONE A], in the series on Toxoplasma gondii [1], the IC50 was found to be 0.848 µg/mL. For `O=C(Nc1ccc([N+](=O)[O-])cc1Cl)c1cc(Cl)ccc1O` [NICLOSAMIDE], in the series with Toxoplasma gondii [1], the EC50 amounted to 0.0453 µg/mL. In the series with Toxoplasma gondii [1], `CC(=O)O[C@H]1CC[C@]2(C)[C@H]3CC=C4[C@@H]5[C@@H](C)[C@H](C)CC[C@]5(C(=O)O)CC[C@@]4(C)[C@]3(C)CC[C@H]2C1(C)C` [O-ACETYLURSOLIC ACID] returned an IC50 of 7900 nM. Same read-out and setting: for `CC1(C)CC[C@]2(C(=O)O)CC[C@]3(C)C(=CC[C@@H]4[C@@]5(C)CC[C@H](O)C(C)(C)[C@@H]5CC[C@]43C)[C@@H]2C1` [OLEANOLIC_ACID] the value was 54800 nM.

As for `CC/C(=C(\c1ccccc1)c1ccc(OCCN(C)C)cc1)c1ccccc1` [TAMOXIFEN], the midpoint of inhibition in the series with Toxoplasma gondii [1], the IC50, lay at 1900 nM.

Consider `Cc1coc2c1C(=O)C(=O)c1c-2ccc2c1CCCC2(C)C` [TANSHINONE IIA], for which it took 2500 nM to reach half-maximal inhibition in the series with Toxoplasma gondii [1] (IC50). Still for that read-out and setting: for `C[C@H]1[C@H](C)CC[C@]2(C(=O)O)CC[C@]3(C)C(=CC[C@@H]4[C@@]5(C)CC[C@H](O)C(C)(C)[C@@H]5CC[C@]43C)[C@H]12` [URSOLIC ACID] the value was 5900 nM.

Take `CCCOc1ccccc1-c1nc2[nH]nnc2c(=O)[nH]1` [ZAPRINAST]: the half-maximal inhibitory concentration (IC50) in the series with Toxoplasma gondii [11] was found to be 60000 nM.
